The source of these data is patent US8466127B2, “Pegylated and fatty acid grafted chitosan oligosaccharide, synthesis method and application for drug delivery system” (Zhejiang University, priority 2008, dated 2013).

For one experiment, the system named is hepatoma cell HepG2. Briefly: MTT assay, mitomycin C preparations. Type of experiment: cell-based. As to conditions: HepG2, 48 h, mitomycin C solution or mitomycin C-loaded micelle of the named carrier. The method, then: Cell survival rate was determined by MTT assay. […] After incubation for 48 h, 60 μL of MTT solution was added to each well followed by incubation for 4 h. After that, the supernatant was discarded, and the cells were washed twice with PBS solution, prior to adding 400 μL DMSO to each well to terminate the reaction. After the culture plates were given a horizontal vibration for 10 min, the absorbance at the wavelength of 570 nm was measured in ELSA meter, and the cell survival rate was calculated according to the following formula: Cell survival rate(%)=A570(sample)/A570(control)×100% Wherein, A570 (sample) is the absorbance of cells adding with free drug or drug-loaded micelle, A570 (control) is the absorbance of control cells.
In general terms: Tetrazolium dyes change colour on reduction, which living cells bring about.

Experiment [1] relates to breast carcinoma cell (MCF-7). Briefly: MTT assay, adriamycin preparation, sensitive cells. As to conditions: Homo sapiens, MCF7, 48 h. Type of experiment: cell-based. The method, then: (§1) Specifically, the breast carcinoma cell (MCF-7) and its drug-resistant cell (MCF-7-adr) used as the model cells were cultured in 96-well culture plate. 100 μL culture solution containing 5×10^3 MCF-7 or MCF-7-adr cells was added to each well and cultured for 24 h in 37° C., 5% CO2 incubator. […] A repeated well of each above group was set. The cells were cultured in normal DMEM medium for 48. After 20 μL of 5 mg/mL methylthiazoletetrazolium (MTT) solution was added to each well, the cells was re-cultured in 37° C., 5% CO2 incubator for 4 h, and then the supernatant was discarded. By adding 150 μL dimethyl sulfoxide to each well, a multi-functional microplate reader was used to measure the absorbance, and then the cell inhibition ratio was calculated according to the following formula: Cell inhibition ratio %=(absorbance of control group−absorbance of experimental group)/absorbance of control group×100%

Another experiment deals with QGY tumor. Nature of the experiment: In vivo gene therapy, tumor inhibition. As to conditions: Nude mouse with QGY tumor, 2 mg/kg once, successive administration for 7 days. The protocol:
PEDF was taken as the theoretical gene, and the drug-loaded graft micelle was prepared.

Experiment [2] concerns drug-resistant cell (MCF-7-adr). Briefly: MTT assay, adriamycin preparation, drug-resistant cells. The conditions noted are these: Homo sapiens, NCI/ADR-RES, 48 h. Type of experiment: cell-based. The method, then: as §1
Experiment [3] deals with uterine cervix cancer cell Hela. Nature of the experiment: MTT assay, adriamycin preparation. Type of experiment: cell-based. As to conditions: Homo sapiens, 48 h. The protocol: Subsequently, the solution was transferred into a volumetric flask to set the total volume to 50 mL with distilled water, and then 1 mg/mL micelle solution was obtained. […] After stirred at room temperature for 3 h, the solution was dialyzed for 24 h with distilled water in dialysis bag with the molecular weight of 3,500. Then the dialysis concentrate solution was centrifuged at 5000 rpm for 5 min to remove the dialyzed hydrophobic anticancer drugs.
Subsequently, the evaluation of antitumor efficacy was conducted. Specifically, the uterine cervix cancer cell Hela used as the model was cultured in 96-well culture plate. 100 μL cell culture solution containing 5×10^3 Hela cells was added to each well and cultured for 24 h in 37° C., 5% CO2 incubator. […] A repeated well of each above group was set. The cells were cultured in normal DMEM medium for 48. After 20 μL of 5 mg/mL methylthiazoletetrazolium (MTT) solution was added to each well, the cells was re-cultured in 37° C., 5% CO2 incubator for 4 h, and then the supernatant was discarded. By adding 150 μL dimethyl sulfoxide to each well, a multi-functional microplate reader was used to measure the absorbance, and then the cell inhibition ratio was calculated according to the following formula: Cell inhibition ratio(%)=(absorbance of control group−absorbance of experimental group)/absorbance of control group×100%

The subject of experiment [4] is human lung cancer cell A549. Briefly: MTT assay, paclitaxel and hydroxycamptothecin preparations. Type of experiment: cell-based. As to conditions: A549, 48 h.
Protocol: Specifically, the human lung cancer cell A549 used as the model was cultured in 96-well culture plate. 100 μL cell culture solution containing 5×10^3 A549 cells was added to each well and cultured for 24 h in 37° C., 5% CO2 incubator. […] A repeated well of each above group was set. The cells were cultured in normal DMEM medium for 48. After 20 μL of 5 mg/mL methylthiazoletetrazolium (MTT) solution was added to each well, the cells was re-cultured in 37° C., 5% CO2 incubator for 4 h, and then the supernatant was discarded. By adding 150 μL dimethyl sulfoxide to each well, a multi-functional microplate reader was used to measure the absorbance, and then the cell inhibition ratio was calculated according to the following formula: Cell inhibition ratio %=(absorbance of control group−absorbance of experimental group)/absorbance of control group×100%
Experiment [5] has as its system drug-resistant cell SKOV-3/ST30. Nature of the experiment: MTT assay, paclitaxel preparation, drug-resistant cells. Type of experiment: cell-based. The conditions noted are these: Homo sapiens, SK-OV-3, 48 h. The method, then:
as §1, with “ovarian cancer” for “breast carcinoma”, “SKOV-3” for “(MCF-7)”, “SKOV-3/ST30” for “(MCF-7-adr)”, “SKOV-3” for “MCF-7”, “SKOV-3/ST30” for “MCF-7-adr”

Experiment [6] has as its system ovarian cancer cell SKOV-3. Briefly: MTT assay, paclitaxel preparation, sensitive cells. Type of experiment: cell-based. The conditions noted are these: Homo sapiens, SK-OV-3, 48 h. The method, then: as §1, with “ovarian cancer” for “breast carcinoma”, “SKOV-3” for “(MCF-7)”, “SKOV-3/ST30” for “(MCF-7-adr)”, “SKOV-3” for “MCF-7”, “SKOV-3/ST30” for “MCF-7-adr”

In brackets after ≈: the same amount, converted by molar mass. Like-named read-outs stand apart in the source and are kept apart here.

One may read the IC50 as the point on the concentration scale where inhibition reaches its midpoint. Consider `CO[C@@]12[C@H](COC(N)=O)C3=C(C(=O)C(C)=C(N)C3=O)N1C[C@@H]1N[C@@H]12` [Control example, mitomycin C], for which the concentration for half-maximal inhibition (IC50) in the experiment on hepatoma cell HepG2 came out at 1.97 mg/L (≈ 5.89 µM).
As for `COc1cccc2c1C(=O)c1c(O)c3c(c(O)c1C2=O)C[C@@](O)(C(=O)CO)C[C@@H]3O[C@H]1C[C@H](N)[C@H](O)[C@H](C)O1` [adriamycin solution, adriamycin], the IC50 in experiment [1] came to 0.48 mg/L (≈ 0.883 µM); in experiment [2] it was 24.8 mg/L (≈ 45.6 µM); in experiment [3], 1.7 mg/L (≈ 3.13 µM). Besides, the “tumor inhibition ratio (positive control)” value in the experiment with QGY tumor is on record as 78.85%.
With `CC[C@@]1(O)C(=O)OCc2c1cc1n(c2=O)Cc2cc3cc(O)ccc3nc2-1` [hydeoxycamptothecin injection, hydroxycamptothecin], in experiment [4], the IC50 was 8.6 mg/L (≈ 23.6 µM).
As for `CC(=O)O[C@H]1C(=O)[C@@]2(C)[C@H]([C@H](OC(=O)c3ccccc3)[C@]3(O)C[C@H](OC(=O)[C@H](O)[C@@H](NC(=O)c4ccccc4)c4ccccc4)C(C)=C1C3(C)C)[C@]1(OC(C)=O)CO[C@@H]1C[C@@H]2O` [taxol solution, paclitaxel], the half-inhibitory concentration (IC50) in experiment [5] was 10.2 ± 0.23 mg/L (≈ 12 µM); in experiment [4] (MTT, read-out: IC50), 3.2 mg/L (≈ 3.75 µM); in experiment [6], 0.45 ± 0.05 mg/L (≈ 0.527 µM).
